In patent US20030229002A1, “Use of agents that modulate PDE11A activity” (Pfizer Inc., priority 2002, published 2003):
Structures can show the parent of a compound that is named as a salt. Where two headings read alike, the source gives them in different places.

Tests used:
recombinant human PDE11A [1] = biological target: T1, recombinant human PDE11A (Homo sapiens, UniProt Q9HCR9); conditions: substrate hydrolysis by recombinant human PDE11A; cited from earlier work
T1 construct: made in house; host or cells: Sf9 insect cells (baculovirus)
T1 sequence (Q9HCR9 445-933): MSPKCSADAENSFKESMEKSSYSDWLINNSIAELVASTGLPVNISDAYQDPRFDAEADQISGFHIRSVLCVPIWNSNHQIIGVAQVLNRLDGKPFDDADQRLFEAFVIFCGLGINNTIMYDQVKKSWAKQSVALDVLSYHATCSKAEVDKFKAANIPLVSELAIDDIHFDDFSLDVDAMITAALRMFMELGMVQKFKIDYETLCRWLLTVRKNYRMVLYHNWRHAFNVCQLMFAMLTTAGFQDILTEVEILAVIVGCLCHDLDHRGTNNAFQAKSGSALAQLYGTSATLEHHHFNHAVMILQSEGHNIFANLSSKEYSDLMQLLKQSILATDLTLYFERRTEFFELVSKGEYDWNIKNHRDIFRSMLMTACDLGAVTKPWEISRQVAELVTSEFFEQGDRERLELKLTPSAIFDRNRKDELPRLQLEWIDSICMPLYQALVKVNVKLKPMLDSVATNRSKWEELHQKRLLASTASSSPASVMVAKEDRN

PDE6 = biological target: T2, PDE6 (Bos taurus, UniProt P11541+P23439); assay: PDE6 inhibition, SPA-based cGMP hydrolysis assay; assay type: biochemical; conditions: PDE6 isolated from bovine retina; geometric mean of at least 3 determinations
T2 construct: PDE6 was isolated from bovine retina; from tissue; host or cells: bovine retina
T2 sequence (P11541 2-856 limits assumed): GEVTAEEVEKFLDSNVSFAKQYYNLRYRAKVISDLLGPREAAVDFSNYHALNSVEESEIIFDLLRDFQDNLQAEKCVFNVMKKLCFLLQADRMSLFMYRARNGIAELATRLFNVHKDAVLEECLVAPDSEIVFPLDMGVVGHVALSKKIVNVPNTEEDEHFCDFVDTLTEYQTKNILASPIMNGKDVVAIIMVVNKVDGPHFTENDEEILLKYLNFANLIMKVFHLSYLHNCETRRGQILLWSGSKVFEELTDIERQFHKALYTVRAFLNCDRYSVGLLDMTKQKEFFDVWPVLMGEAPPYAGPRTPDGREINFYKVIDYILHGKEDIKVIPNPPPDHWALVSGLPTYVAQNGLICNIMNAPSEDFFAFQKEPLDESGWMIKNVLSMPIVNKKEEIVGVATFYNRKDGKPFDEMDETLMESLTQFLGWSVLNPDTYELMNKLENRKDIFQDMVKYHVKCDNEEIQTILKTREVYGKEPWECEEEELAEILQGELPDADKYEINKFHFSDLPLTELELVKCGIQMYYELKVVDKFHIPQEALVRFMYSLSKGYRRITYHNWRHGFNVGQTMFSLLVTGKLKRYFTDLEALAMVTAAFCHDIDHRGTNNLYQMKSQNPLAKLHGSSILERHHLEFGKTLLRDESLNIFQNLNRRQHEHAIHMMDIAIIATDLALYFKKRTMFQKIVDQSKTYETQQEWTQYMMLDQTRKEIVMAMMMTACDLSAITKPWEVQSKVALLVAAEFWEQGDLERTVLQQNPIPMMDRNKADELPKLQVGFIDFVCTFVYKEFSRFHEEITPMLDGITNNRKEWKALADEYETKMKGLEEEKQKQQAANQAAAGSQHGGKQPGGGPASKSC
T2 sequence (P23439 2-850 limits assumed): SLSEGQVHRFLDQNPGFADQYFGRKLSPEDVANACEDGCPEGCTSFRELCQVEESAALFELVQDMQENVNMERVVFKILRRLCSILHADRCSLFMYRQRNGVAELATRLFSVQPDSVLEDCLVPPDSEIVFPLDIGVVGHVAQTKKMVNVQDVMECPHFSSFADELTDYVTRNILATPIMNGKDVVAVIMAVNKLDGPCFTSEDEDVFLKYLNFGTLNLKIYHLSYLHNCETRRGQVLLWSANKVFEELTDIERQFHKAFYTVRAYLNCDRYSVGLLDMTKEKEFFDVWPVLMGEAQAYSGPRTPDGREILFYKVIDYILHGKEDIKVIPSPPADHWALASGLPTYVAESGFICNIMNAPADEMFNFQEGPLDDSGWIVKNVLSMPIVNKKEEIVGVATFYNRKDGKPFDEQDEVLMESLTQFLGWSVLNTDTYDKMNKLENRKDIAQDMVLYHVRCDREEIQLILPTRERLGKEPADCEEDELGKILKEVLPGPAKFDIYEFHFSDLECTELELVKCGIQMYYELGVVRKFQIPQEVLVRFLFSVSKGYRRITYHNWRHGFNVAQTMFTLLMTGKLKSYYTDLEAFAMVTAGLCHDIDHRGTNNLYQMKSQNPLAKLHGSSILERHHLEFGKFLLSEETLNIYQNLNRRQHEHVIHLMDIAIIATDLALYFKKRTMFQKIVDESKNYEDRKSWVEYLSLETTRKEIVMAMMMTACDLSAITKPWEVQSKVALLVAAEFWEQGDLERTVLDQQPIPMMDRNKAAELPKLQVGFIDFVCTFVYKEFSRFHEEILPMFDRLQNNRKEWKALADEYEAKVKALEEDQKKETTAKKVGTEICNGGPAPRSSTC

recombinant human PDE9 = biological target: T3, recombinant human PDE9 (Homo sapiens, UniProt O76083); assay: PDE9 inhibition, SPA-based assay; assay type: biochemical; conditions: Sf9 cells, geometric mean of at least 3 determinations
T3 construct: made in house; host or cells: Sf9 insect cells (baculovirus)
T3 sequence (O76083 whole entry): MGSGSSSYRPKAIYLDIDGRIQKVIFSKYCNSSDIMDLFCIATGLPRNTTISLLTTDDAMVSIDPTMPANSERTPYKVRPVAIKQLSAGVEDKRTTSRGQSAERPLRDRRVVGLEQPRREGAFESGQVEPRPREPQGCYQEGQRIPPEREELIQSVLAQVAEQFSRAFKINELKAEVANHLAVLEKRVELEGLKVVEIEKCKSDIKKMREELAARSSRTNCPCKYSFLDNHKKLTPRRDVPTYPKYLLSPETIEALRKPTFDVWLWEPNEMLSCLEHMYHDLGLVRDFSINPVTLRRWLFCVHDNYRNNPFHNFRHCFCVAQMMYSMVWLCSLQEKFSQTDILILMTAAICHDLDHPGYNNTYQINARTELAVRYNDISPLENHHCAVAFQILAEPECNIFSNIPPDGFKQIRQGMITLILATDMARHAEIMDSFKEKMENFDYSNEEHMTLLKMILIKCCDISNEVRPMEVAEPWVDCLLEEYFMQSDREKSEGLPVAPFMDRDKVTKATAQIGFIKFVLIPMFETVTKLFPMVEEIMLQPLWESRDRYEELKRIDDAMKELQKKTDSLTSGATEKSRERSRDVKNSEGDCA

recombinant human PDE8 = biological target: T4, recombinant human PDE8 (Homo sapiens, UniProt O60658); assay: PDE8 inhibition, SPA-based assay; assay type: biochemical; conditions: Sf9 cells, geometric mean of at least 3 determinations
T4 construct: made in house; host or cells: Sf9 insect cells (baculovirus)
T4 sequence (O60658 whole entry): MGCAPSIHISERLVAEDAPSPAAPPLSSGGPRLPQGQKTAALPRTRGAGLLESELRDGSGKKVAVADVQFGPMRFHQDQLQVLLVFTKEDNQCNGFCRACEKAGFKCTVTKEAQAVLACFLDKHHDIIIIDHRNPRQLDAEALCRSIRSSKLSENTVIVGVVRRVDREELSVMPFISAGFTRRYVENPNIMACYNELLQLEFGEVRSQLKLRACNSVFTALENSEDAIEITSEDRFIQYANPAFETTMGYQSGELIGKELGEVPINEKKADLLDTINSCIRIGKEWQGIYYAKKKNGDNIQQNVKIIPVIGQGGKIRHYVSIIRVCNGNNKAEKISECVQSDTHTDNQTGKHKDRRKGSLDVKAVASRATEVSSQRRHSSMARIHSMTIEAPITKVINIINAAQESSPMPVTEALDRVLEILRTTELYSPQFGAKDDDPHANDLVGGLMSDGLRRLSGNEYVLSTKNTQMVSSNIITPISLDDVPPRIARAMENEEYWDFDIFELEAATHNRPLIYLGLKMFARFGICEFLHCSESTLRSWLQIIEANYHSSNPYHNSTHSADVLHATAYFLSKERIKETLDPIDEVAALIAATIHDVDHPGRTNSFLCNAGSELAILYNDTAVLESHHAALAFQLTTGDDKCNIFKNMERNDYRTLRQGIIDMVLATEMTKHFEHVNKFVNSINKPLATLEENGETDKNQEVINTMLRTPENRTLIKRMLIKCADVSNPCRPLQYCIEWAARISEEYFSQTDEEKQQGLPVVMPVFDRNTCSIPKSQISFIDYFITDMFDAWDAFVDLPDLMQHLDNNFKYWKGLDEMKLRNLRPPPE

recombinant human PDE10 = recombinant human PDE10 (Homo sapiens, UniProt Q9Y233); assay: PDE10 inhibition, SPA-based assay; assay type: biochemical; conditions: Sf9 cells, geometric mean of at least 3 determinations
Chain of recombinant human PDE10 (Q9Y233 290-1055 limits assumed): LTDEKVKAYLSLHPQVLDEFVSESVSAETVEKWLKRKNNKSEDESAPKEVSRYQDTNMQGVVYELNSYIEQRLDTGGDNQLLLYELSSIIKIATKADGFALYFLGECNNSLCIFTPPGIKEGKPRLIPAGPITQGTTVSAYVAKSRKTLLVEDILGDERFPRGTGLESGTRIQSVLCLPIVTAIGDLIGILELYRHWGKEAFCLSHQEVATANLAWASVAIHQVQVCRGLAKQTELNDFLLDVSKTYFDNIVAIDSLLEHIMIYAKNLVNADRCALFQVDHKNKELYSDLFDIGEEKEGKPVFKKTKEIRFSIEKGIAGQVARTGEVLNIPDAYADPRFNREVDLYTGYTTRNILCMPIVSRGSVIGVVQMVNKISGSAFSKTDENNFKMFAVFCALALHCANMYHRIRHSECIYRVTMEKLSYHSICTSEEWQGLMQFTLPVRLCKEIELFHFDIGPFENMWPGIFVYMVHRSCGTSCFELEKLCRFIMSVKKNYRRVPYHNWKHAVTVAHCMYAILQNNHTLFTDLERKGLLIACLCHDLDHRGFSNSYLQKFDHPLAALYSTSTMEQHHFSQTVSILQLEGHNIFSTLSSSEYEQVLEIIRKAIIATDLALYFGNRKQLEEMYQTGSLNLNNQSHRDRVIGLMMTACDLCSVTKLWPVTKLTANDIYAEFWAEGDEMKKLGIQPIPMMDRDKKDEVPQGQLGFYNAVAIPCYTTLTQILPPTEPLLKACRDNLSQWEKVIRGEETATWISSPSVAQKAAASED

recombinant human PDE7 = biological target: T5, recombinant human PDE7 (Homo sapiens, UniProt Q13946); assay: PDE7 inhibition, SPA-based assay; assay type: biochemical; conditions: Sf9 cells, geometric mean of at least 3 determinations
T5 construct: made in house; host or cells: Sf9 insect cells (baculovirus)
T5 sequence (Q13946 whole entry): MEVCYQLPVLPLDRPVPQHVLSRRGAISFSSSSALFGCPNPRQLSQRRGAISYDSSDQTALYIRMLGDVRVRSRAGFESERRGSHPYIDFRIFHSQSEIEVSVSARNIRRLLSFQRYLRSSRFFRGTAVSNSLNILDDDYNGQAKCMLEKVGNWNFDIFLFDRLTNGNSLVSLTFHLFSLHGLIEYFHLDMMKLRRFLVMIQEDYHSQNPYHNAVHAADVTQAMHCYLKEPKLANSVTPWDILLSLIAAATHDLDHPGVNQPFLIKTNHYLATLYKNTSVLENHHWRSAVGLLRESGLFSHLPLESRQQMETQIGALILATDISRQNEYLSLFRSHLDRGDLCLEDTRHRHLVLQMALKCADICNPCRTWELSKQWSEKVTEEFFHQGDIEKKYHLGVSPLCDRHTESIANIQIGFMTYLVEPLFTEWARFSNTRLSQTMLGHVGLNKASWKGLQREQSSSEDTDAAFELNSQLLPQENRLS

epididymal spermatozoa = assay: Capacitation analysis, chlorotetracycline (CTC) assay; assay type: cell-based, mouse; conditions: for number of capacitated sperm: FIG. 6, P<0.001; for % capacitated sperm: mean ± SEM
From the text: Tissue sections were examined by immunohistochemistry (IHC) using a specific anti-PDE11 antibody. KO mice were generated using standard techniques, and PDE11 ablation confirmed by Southern blotting as well as reverse transcriptase polymerase chain reaction (RT-PCR) and IHC analysis of the testis. Fresh epididymal sperm were collected from adult mice and tested for capacitation (CP) using a chlorotetracycline assay before and after treatment with ATP—an inducer of CP.
For capacitation analyses, fresh epididymal spermatozoa were collected from adult (16 week-old) mice into Tyrodes media, and tested in triplicate using a chlorotetracycline (CTC) assay (Fraser, L. R. & Herod, J. E. Expression of capacitation-dependent changes in chlortetracycline fluorescence patterns in mouse spermatozoa requires a suitable glycolysable substrate. J. Reprod. Fert., 1990; 88(2): 611-21) both ± pre-treatment with ATP—an inducer of capacitation—to determine the functional state of the spermatozoa.
[…] The extent of capacitation was measured using chlorotetracycline (CTC), 750 μM for 15 min at 37° C. The patterns of CTC fluorescence were observed under microscopy (Reference: Fraser L R et al., 1990, J. Reprod. Fert.—see above). Patterns reflected the functional state of spermatozoa, i.e. capacitated, uncapacitated and acrosome loss.

recombinant human PDE11A [2] = biological target: T1, recombinant human PDE11A; assay: PDE11A inhibition, SPA-based cGMP hydrolysis assay; assay type: biochemical

| IC50 (PDE6) [nM] | IC50 (recombinant human PDE9) [µM] | IC50 (recombinant human PDE10) [µM] | IC50 (recombinant human PDE7) [µM] | Compound | IC50 (recombinant human PDE8) [µM] | also measured |
| --- | --- | --- | --- | --- | --- | --- |
| – | – | – | – | Nc1nc2c(ncn2[C@@H]2O[C@@H]3COP(=O)(O)O[C@H]3[C@H]2O)c(=O)[nH]1 [cGMP, cyclic guanine 3′,5′-monophosphate] | – | Km (recombinant human PDE11A [1]): 520 nM |
| 1500 | > 100 | > 100 | > 100 | CN1CC(=O)N2[C@H](c3ccc4c(c3)OCO4)c3[nH]c4ccccc4c3C[C@@H]2C1=O [IC351, (6R,12aR)-6-(1,3-benzodioxol-5-yl)-2,3,6,7,12,12a-hexahydro-2-methyl-pyrazino[1′,2′: 1,6]pyrido[3,4-b]indole-1,4-dione] | > 100 | – |
| – | – | – | – | Nc1ncnc2c1ncn2[C@@H]1O[C@H](COP(=O)(O)OP(=O)(O)OP(=O)(O)O)[C@@H](O)[C@H]1O [ATP, adenosine-5′-triphosphate] | – | number of capacitated sperm (epididymal spermatozoa; ATP 1.0 mM, spermatozoa from PDE11 KO mice only): significantly increased; number of capacitated sperm (epididymal spermatozoa; ATP 2.5 mM, all murine spermatozoa samples, 1 hr incubation): significantly increased; number of capacitated murine spermatozoa (epididymal spermatozoa; PDE11 knockout and wild type samples, after 1 hr incubation): significantly increased; % capacitated sperm (epididymal spermatozoa; Table 2, PDE11 KO (−/−) mice, pre-treatment +1mM ATP, n = 3 animals): 45.9 ± 7.0%; % capacitated sperm (epididymal spermatozoa; Table 2, PDE11 KO (−/−) mice, pre-treatment +2.5 mM ATP, n = 3 animals): 73.9 ± 5.6%; % capacitated sperm (epididymal spermatozoa; Table 2, Wild-type (+/+) mice, pre-treatment +1mM ATP, n = 3 animals): 41.4 ± 8.2%; % capacitated sperm (epididymal spermatozoa; Table 2, Wild-type (+/+) mice, pre-treatment +2.5 mM ATP, n = 3 animals): 73.5 ± 5.1%; % capacitated sperm (epididymal spermatozoa; Table 3, PDE11 KO (−/−) mice, pre-treatment +1 mM ATP, n = 4): 48.4 ± 4.0%; % capacitated sperm (epididymal spermatozoa; Table 3, PDE11 KO (−/−) mice, pre-treatment +2.5 mM ATP, n = 4): 77.6 ± 3.8%; % capacitated sperm (epididymal spermatozoa; Table 3, Wild-type (+/+) mice, pre-treatment +1 mM ATP, n = 4): 47.1 ± 5.1%; % capacitated sperm (epididymal spermatozoa; Table 3, Wild-type (+/+) mice, pre-treatment +2.5 mM ATP, n = 4): 78.4 ± 3.3% |
| – | – | – | 19.7 | CCCc1nn(C)c2c(=O)[nH]c(-c3cc(S(=O)(=O)N4CCN(C)CC4)ccc3OCC)nc12 [Sildenafil, 5-[2-ethoxy-5-(4-methyl-1-piperazinylsulphonyl)phenyl]-1-methyl-3-n-propyl-1,6-dihydro-7H-pyrazolo[4,3-d]pyrimidin-7-one] | – | – |
| 1000 | > 100 | > 100 | – | Clc1ccc2nc(-n3ccnc3)nc(NCc3ccccc3)c2c1 [UK-235,187, 6-Chloro-2-(1H-imidazol-1-yl)-N-(phenylmethyl)-,4-quinazolinamine, dihydrochloride] | – | IC50 (recombinant human PDE11A [2]; recombinant human, Sf9 cells, 69 nM cGMP, geometric mean of at least 3 determinations, read-out: IC50 PDE11A): 46.6 nM |

| Compound | IC50 (PDE6) [nM] | IC50 (recombinant human PDE9) [µM] | IC50 (recombinant human PDE10) [µM] | IC50 (recombinant human PDE7) [µM] | IC50 (recombinant human PDE8) [µM] | also measured |
| --- | --- | --- | --- | --- | --- | --- |
| O=C(O)C1CCN(c2nc(NCc3ccc4c(c3)OCO4)c3cc(Cl)ccc3n2)CC1 [Compound E4021, 1-[4-[(1,3-benzodioxol-5-ylmethyl)amino]-6-chloro-2-quinazolinyl]-4-piperidinecarboxylic acid, monohydrochloride] | 4.7 | > 100 | > 100 | > 100 | > 100 | IC50 (recombinant human PDE11A [2]): 572 nM |
